Our source for the TGI and GI50 values is PubChem BioAssay (NCI).

Values joined by “and” are separate entries in the source; they are usually repeats but may differ in a detail not shown here. Equal values may be shown once.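 Cells were grown in 96-well plates and exposed to each compound for 48 hours at five concentrations; endpoints were interpolated linearly between bracketing concentrations, or set to the highest concentration if not reached. GI50: concentration for 50% inhibition of growth. Definition used: TGI = concentration required for complete inhibition of growth.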 Where a SMILES comes first, the peptide text is derived from it. [ ]: non-standard residue; d: D form. The star is where a group is joined. ξ: configuration not given here. ξPhe(4-NO2) = NC(Cc1ccc([N+](=O)[O-])cc1)C(=O)O; Boc = CC(C)(C)OC(=O)*; OBn = c1ccc(CO*)cc1

What all share (experiment): NCI-60 cell line screen, 48 h
Assay [1] relates to ACHN renal.
Assay [2] concerns CAKI-1 renal.
Assay [3] has as its system HCT-15 colon.
Assay [4] concerns MCF7 breast.
The subject of assay [5] is MDA-N.
Assay [6] has as its system OVCAR-3 ovarian.
Assay [7] relates to SW-620 colon.
In assay [8] the test system is UACC-62 melanoma.
For assay [9], the system named is KM20L2 colon.
In assay [10] the test system is M19-MEL melanoma.
In assay [11] the test system is SNB-78 CNS.

In the case of `CC1=CC2(O)OC3(CC2=C(C)C)C(C)CCC13` (stereo unspecified), the TGI in assay [1], in [2], in assay [3], in assay [4], in assay [5] and in assay [6] was > 100 µM in each case. In addition, the TGI in assay [7] and in assay [8] was > 100 µM throughout.

In the case of `CN(C)CCOC1(Cc2ccc(Cl)cc2Cl)CCC(C(C)(C)C)CC1` (stereo unspecified), the GI50 in assay [1] is 1990 nM; in [2], 5.18 µM; in assay [3], 1570 nM; in assay [4], 1790 nM; in assay [6], 2030 nM; in assay [7], 1730 nM. Besides, the GI50 in assay [8] was 3.7 µM. The TGI in assay [1] is 5.28 µM and 4.05 µM; in assay [2] it was 4.35 µM and 10.6 µM; in [3] it was 3.44 µM and 3.06 µM; in [4], 3.49 µM and 3.65 µM; in assay [5], 3.31 µM; in [6], 3.07 µM and 3.92 µM. Moreover, the TGI was 3.84 µM and 4.78 µM in assay [7]; 3.9 µM and 9.66 µM in assay [8].

With `CC1=CCC[C@@](C)(O)[C@@H]2C[C@H]3C(CSc4ccccc4)C(=O)O[C@H]3[C@@H](O2)[C@H](C)CCC1` (stereo partly specified), the TGI in assay [1] is 25.5 µM; in [2] it was 64.6 µM; in assay [3], 67.9 µM; in [4] it was 29.4 µM; in [5], 86.2 µM; in [6], 26.5 µM. The TGI in assay [7] was 93.2 µM; in assay [8] it was 34.1 µM.

`CN(C)c1ncnc2c1ncn2C1C=CC(COS(N)(=O)=O)C1` (stereo unspecified): the TGI in assay [1], in assay [2], in assay [3], in assay [4], in assay [5] and in assay [6] was > 100 µM throughout. Also, the TGI in assay [7] and in [8] was > 100 µM in each case.

`CC(C)(C)OC(=O)NC(Cc1ccc([N+](=O)[O-])cc1)C(=O)NCC(=O)OCc1ccccc1` (stereo unspecified) (Boc-[ξPhe(4-NO2)]-Gly-OBn): the TGI in assay [1] is 48.4 µM; in assay [2], 27.7 µM; in assay [3] it was 41.9 µM; in assay [4] it was > 100 µM; in assay [5], 39.8 µM; in [6], 50.5 µM. The values for the TGI in assay [7] and in assay [8] were > 100 µM and 32 µM, respectively.

Take `Cn1cnc2c(OCC3CCCCC3)nc(N)nc21`: the TGI in [1], in assay [2], in assay [3], in assay [4], in assay [5] and in assay [6] was > 100 µM in each case. Further, the TGI in assay [7] and in [8] was > 100 µM throughout.

Regarding `CC1(C)OC(=O)C(C)(C)OC1=O`, the TGI in assay [1], in [2], in [3], in assay [4], in assay [5] and in [6] was > 100 µM in each case. The TGI in assay [7] and in assay [8] was > 100 µM in each case.

Regarding `C[C@]12CC(c3ccccc3O1)C(C#N)C(=O)N2` (stereo partly specified), the TGI in assay [1], in assay [2], in assay [3], in assay [4], in assay [5] and in assay [6] was > 100 µM in each case. The TGI in [7] and in assay [8] was > 100 µM throughout.

With `COc1ccc(OC)c(NC(=O)C(=O)Nn2c(=S)[nH]c3ccccc3c2=O)c1`, the TGI in assay [1], in assay [2], in assay [3], in assay [4], in [5] and in assay [6] was > 100 µM throughout. In addition, the TGI in [7] and in assay [8] was > 100 µM each time.

On to `COc1cc2c(cc1OC)C1C(O)C(OC)C=C3CC[N+](C)(C2)C31` (stereo unspecified), for which the TGI in assay [1], in [2], in [3], in assay [4], in assay [5] and in assay [6] was > 100 µM throughout. For the same compound, the TGI in assay [7] and in [8] was > 100 µM throughout.

Regarding `CCOc1ccc(N/C(=C(/C(Cl)=C(/Cl)NCCO)[N+](=O)[O-])n2nnc3ccccc32)cc1`, the TGI was 48.4 µM in assay [1]; 27.8 µM in assay [2]; 43.3 µM in [3]; 38.8 µM in [4]; > 100 µM in assay [5]; 35.2 µM in [6]. In addition, the TGI in assay [7] came to 39.9 µM; in assay [8] it was 56.7 µM.

In the case of `CN1CC2=C(NC(=S)NC2c2ccc(Cl)cc2)/C(=C/c2ccc(Cl)cc2)C1` (stereo unspecified), the TGI in assay [1] is 57.9 µM; in assay [2], 32.4 µM; in [3], 37.5 µM; in [4], 68.4 µM; in assay [5], 34.9 µM; in assay [6], 29.3 µM. Besides, the TGI in [7] was determined as 30.3 µM; in [8], 33.8 µM.

As to `Cc1ccc(S(=O)(=O)[N-]C2C(=O)c3ccccc3C(=O)C2[n+]2cccc(C(N)=O)c2)cc1` (stereo unspecified), the TGI in [1], in assay [2], in assay [3], in [4], in assay [5] and in assay [6] was > 100 µM throughout. Also, the TGI in assay [7] and in [8] was > 100 µM each time.

Regarding `CCOC(=O)c1cc(C2CCN(CC(C)CC)C2=S)c(C(=O)/C=C(/C)N)[nH]1` (stereo unspecified), the TGI in assay [1], in assay [2], in [3], in [4], in [5] and in assay [6] was > 50 µM throughout. For the same compound, the TGI in [7] and in assay [8] was > 50 µM in each case.

`CCC(CC)C(=O)OC[n+]1cccc(-c2c(COC(=O)NC(C)C)c(COC(=O)NC(C)C)c3n2CCC3)c1`: the TGI in assay [1], in [2], in [3], in assay [4], in [5] and in assay [6] was > 100 µM throughout. For the same compound, the TGI in assay [7] and in [8] was > 100 µM in each case.

Turning to `CC(=O)n1nc(-c2nc3ccccc3nc2Cl)cc1Cl`, the TGI was 28.5 µM in [1]; 21.6 µM in assay [2]; 57.3 µM in assay [3]; > 82.6 µM in [4]; 24.2 µM in assay [5]; 68.2 µM in assay [6]. The TGI in [7] and in [8] was > 100 µM throughout.

In the case of `COc1ccc2nc3cc([N+](=O)[O-])ccc3c(NNc3ccc(Cl)cc3)c2c1`, the TGI in assay [1] is > 82.2 µM; in assay [2], 2.26 µM; in assay [3], > 100 µM; in assay [4], > 100 µM; in assay [5], > 100 µM; in [6], > 20.5 µM. For the same compound, the TGI in [7] was > 76.3 µM; in assay [8] it was > 65.9 µM.

For `COc1ccc(-c2onc(-c3c(C)cc(C)cc3C)c2C2=NCCCN2)cc1`, the TGI in [1] was > 100 µM; in assay [2], 44.8 µM; in assay [3], > 100 µM; in assay [9], > 100 µM; in assay [10], > 100 µM; in assay [6], > 100 µM. Further, the TGI in [11], in assay [7] and in assay [8] was > 100 µM in each case.

As for `NC1=CC(C(=O)c2ccncc2)c2nc3ccccc3nc21` (stereo unspecified), the TGI in assay [1], in assay [2], in [3], in [4], in assay [5] and in assay [6] was > 100 µM each time. Also, the TGI in assay [7] and in assay [8] was > 100 µM throughout.

In the case of `COc1cccc(-c2cccc(SC)n2)n1`, the TGI in assay [1] is > 100 µM; in [2], > 100 µM; in [3], > 100 µM; in assay [4], > 100 µM; in [5], > 100 µM; in assay [6] it was 61.1 µM. Also, the TGI in assay [7] and in [8] was > 100 µM throughout.

With `CC(C)C[C@H](NC(=O)CCc1ccccc1)B(O)O`, the TGI was > 100 µM in [1]; 25.2 µM in assay [2]; 38.1 µM in assay [3]; > 100 µM in [4]; 7.27 µM in [5]; 17.4 µM in assay [6]. For the same compound, the TGI worked out at 19.1 µM in [7] and 72.9 µM in [8].

`CO[C@@](c1ccccc1)(c1nc(C#N)c(N)o1)C(F)(F)F`: the TGI in [1], in [2], in assay [3], in [4], in [5] and in assay [6] was > 100 µM in each case. The TGI in [7] and in assay [8] was > 100 µM throughout.

As to `Cc1ccc(S(=O)(=O)NC(=O)NCC(=O)NCC(=O)O)cc1`, the TGI in assay [1], in [2], in assay [3], in assay [4], in assay [5] and in assay [6] was > 100 µM in each case. Besides, the TGI in assay [7] and in assay [8] was > 100 µM throughout.

As to `COc1ccc(-n2c3c(c4cc(O)ccc42)C(=O)c2ccccc2C3=O)cc1`, the TGI was 56.7 µM in assay [1]; > 100 µM in assay [2]; > 100 µM in assay [3]; > 100 µM in [4]; > 100 µM in [5]; 27.2 µM in assay [6]. The TGI in assay [7] is > 100 µM; in assay [8], 25.6 µM.

For the compound `O=C1Nc2ccccc2[C@]12C[C@H]2c1ccccn1`, the TGI in assay [1], in assay [2], in [3], in assay [4], in assay [5] and in assay [6] was > 100 µM throughout. The TGI in assay [7] and in assay [8] was > 100 µM throughout.

As for `COc1ccc(C2SC(N)=Nc3c2c(C)nn3C(=O)c2ccc(Cl)cc2)cc1` (stereo unspecified), the TGI in assay [1], in assay [2], in assay [3], in assay [4], in assay [5] and in [6] was > 10 µM in each case. Besides, the TGI in [7] and in assay [8] was > 10 µM in each case.

As to `NC(C(F)(F)F)(C(F)(F)F)P(=O)(c1ccccc1)c1ccccc1`, the TGI in assay [1], in assay [2], in [3], in assay [4], in assay [5] and in [6] was > 100 µM each time. The TGI in [7] and in assay [8] was > 100 µM throughout.

Take `Nc1nc(Cl)cc(NCC2(CO)CCC2)n1`: the TGI in assay [1], in assay [2], in assay [3], in assay [4], in assay [5] and in [6] was > 100 µM in each case. Also, the TGI in assay [7] and in [8] was > 100 µM throughout.

As to `Cc1[nH]n(-c2nc3c(c(=O)[nH]2)CCC3)c(=O)c1CCO`, the TGI in assay [1], in assay [2], in assay [3], in assay [4], in [5] and in assay [6] was > 100 µM each time. For the same compound, the TGI in assay [7] and in [8] was > 100 µM in each case.

As for `Cc1cnc2[nH]c(-c3ccc(F)cc3)cc(=O)c2c1`, the TGI in assay [1] is > 100 µM; in [2], > 100 µM; in assay [3], > 100 µM; in assay [4], > 100 µM; in assay [5] it was 8.87 µM; in assay [6] it was > 78.3 µM. In addition, the TGI in [7] and in [8] was > 100 µM in each case.

For the compound `COc1ccc(CNc2nc(NCc3ccc(OC)cc3)nc(NC(C)C)n2)cc1`, the TGI in assay [1] was 59.1 µM; in assay [2], 66.4 µM; in assay [3], > 100 µM; in assay [4] it was 5.6 µM; in assay [5], 10.3 µM; in assay [6], 10.3 µM. The TGI is > 100 µM in assay [7] and 31.1 µM in assay [8].
